Test results taken from publication PMC4508061, “Selectivity Profiling and Biological Activity of Novel β-Carbolines as Potent and Selective DYRK1 Kinase Inhibitors” (PLoS ONE, 2015).

Tests used:
Experiment in all cases: ProQinase radiometric kinase panel
Details in all cases: mean of 2 exp.
ACK1 = ACK1 (Homo sapiens, UniProt Q07912)
ACV-R1 = ACV-R1 (Homo sapiens, UniProt Q04771)
ACV-R2A = ACV-R2A (Homo sapiens, UniProt P27037)
ACV-RL1 = ACV-RL1 (Homo sapiens, UniProt P37023)
AKT2 = AKT2 (Homo sapiens, UniProt P31751)
ARK5 = ARK5 (Homo sapiens, UniProt O60285)
BLK = BLK (Homo sapiens, UniProt P51451)
B-RAF = B-RAF (Homo sapiens, UniProt P15056)
CDK4/CycD3 = CDK4/CycD3 (Homo sapiens, UniProt P11802)
CDK9/CycT1 = CDK9/CycT1 (Homo sapiens, UniProt P50750)
CK1-alpha1 = CK1-alpha1 (Homo sapiens, UniProt P48729)
CK1-delta = CK1-delta (Homo sapiens, UniProt P48730)
CK1-gamma3 = CK1-gamma3 (Homo sapiens, UniProt Q9Y6M4)
DMPK = DMPK (Homo sapiens, UniProt Q09013)
EIF2AK3 = EIF2AK3 (Homo sapiens, UniProt Q9NZJ5)
EPHA3 = EPHA3 (Homo sapiens, UniProt P29320)
EPHA7 = EPHA7 (Homo sapiens, UniProt Q15375)
FES = FES (Homo sapiens, UniProt P07332)
JAK1 = JAK1 (Homo sapiens, UniProt P23458)
LTK = LTK (Homo sapiens, UniProt P29376)
MAPKAPK2 = MAPKAPK2 (Homo sapiens, UniProt P49137)
MEK2 = MEK2 (Homo sapiens, UniProt P36507)
MKNK1 = MKNK1 (Homo sapiens, UniProt Q9BUB5)
MYLK2 = MYLK2 (Homo sapiens, UniProt Q9H1R3)
p38-beta = p38-beta (Homo sapiens, UniProt Q15759)
PAK2 = PAK2 (Homo sapiens, UniProt Q13177)
PAK4 = PAK4 (Homo sapiens, UniProt O96013)
CDK16/CycY = CDK16/CycY (Homo sapiens, UniProt Q00536)
PKC-epsilon = PKC-epsilon (Homo sapiens, UniProt Q02156)
PYK2 = PYK2 (Homo sapiens, UniProt Q14289)
RPS6KA3 = RPS6KA3 (Homo sapiens, UniProt P51812)
RPS6KA6 = RPS6KA6 (Homo sapiens, UniProt Q9UK32)
SRC = SRC (Homo sapiens, UniProt P12931)
STK17A = STK17A (Homo sapiens, UniProt Q9UEE5)
STK33 = STK33 (Homo sapiens, UniProt Q9BYT3)
TEC = TEC (Homo sapiens, UniProt P42680)
TRK-A = TRK-A (Homo sapiens, UniProt P04629)
WNK1 = WNK1 (Homo sapiens, UniProt Q9H4A3)
ZAK = ZAK (Homo sapiens, UniProt Q9NYL2)

Sequence of RPS6KA6 (Q9UK32 whole entry): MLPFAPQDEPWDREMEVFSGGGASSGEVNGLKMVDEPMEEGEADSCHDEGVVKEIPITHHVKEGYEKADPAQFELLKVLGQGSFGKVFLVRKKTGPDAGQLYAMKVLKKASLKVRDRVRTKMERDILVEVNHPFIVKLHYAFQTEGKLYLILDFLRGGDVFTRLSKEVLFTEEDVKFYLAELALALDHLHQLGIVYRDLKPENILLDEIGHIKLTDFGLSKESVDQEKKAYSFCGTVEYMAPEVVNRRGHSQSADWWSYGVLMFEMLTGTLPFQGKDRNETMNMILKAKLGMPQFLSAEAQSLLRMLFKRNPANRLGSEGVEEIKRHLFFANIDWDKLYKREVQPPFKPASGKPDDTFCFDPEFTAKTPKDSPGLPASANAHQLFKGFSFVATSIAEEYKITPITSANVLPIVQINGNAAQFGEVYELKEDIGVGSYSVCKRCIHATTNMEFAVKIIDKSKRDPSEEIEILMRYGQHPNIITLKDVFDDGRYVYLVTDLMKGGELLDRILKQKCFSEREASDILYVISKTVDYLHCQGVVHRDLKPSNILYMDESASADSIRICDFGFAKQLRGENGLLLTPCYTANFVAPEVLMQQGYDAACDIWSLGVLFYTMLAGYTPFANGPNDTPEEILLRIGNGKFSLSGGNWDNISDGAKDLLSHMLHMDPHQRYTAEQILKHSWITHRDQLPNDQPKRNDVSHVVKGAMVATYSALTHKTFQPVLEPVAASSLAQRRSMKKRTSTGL
Sequence of ACV-RL1 (P37023 22-503): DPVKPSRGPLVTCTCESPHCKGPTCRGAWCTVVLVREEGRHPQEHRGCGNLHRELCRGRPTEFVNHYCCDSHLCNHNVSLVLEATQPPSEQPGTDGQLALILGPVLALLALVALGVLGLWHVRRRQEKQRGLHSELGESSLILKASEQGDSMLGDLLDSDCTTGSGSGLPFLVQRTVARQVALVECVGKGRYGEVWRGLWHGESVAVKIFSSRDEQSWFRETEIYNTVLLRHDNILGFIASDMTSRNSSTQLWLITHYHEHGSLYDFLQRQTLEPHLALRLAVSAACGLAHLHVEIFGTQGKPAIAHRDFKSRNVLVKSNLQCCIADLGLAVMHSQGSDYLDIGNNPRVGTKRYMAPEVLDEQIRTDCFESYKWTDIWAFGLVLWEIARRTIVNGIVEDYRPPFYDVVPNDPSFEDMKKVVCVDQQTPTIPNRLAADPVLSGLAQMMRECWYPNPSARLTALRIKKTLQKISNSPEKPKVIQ
Sequence of BLK (P51451 whole entry): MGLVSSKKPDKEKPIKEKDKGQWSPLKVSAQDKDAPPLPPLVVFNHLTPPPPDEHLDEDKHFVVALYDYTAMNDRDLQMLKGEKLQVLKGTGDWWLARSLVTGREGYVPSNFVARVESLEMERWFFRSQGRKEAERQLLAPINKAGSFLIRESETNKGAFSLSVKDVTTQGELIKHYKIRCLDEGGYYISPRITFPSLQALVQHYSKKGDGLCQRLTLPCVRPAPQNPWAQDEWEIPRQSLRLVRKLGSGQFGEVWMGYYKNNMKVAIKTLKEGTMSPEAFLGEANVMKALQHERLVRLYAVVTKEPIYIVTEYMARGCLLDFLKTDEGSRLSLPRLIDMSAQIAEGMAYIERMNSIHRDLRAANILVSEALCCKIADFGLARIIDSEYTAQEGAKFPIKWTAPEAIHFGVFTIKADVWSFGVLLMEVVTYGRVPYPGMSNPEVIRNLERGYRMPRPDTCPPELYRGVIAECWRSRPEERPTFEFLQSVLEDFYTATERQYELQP
Sequence of p38-beta (Q15759 whole entry): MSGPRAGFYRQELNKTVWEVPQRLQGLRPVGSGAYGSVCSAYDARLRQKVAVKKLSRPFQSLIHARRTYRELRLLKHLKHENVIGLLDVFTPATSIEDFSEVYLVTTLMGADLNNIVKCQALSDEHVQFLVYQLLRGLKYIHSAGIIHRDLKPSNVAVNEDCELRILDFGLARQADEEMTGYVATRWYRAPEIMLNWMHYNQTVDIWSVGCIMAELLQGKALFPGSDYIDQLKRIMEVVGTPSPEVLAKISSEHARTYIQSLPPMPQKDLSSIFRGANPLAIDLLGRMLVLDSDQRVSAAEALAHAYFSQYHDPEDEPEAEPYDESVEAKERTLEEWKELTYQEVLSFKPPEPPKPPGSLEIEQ
Sequence of MAPKAPK2 (P49137 whole entry): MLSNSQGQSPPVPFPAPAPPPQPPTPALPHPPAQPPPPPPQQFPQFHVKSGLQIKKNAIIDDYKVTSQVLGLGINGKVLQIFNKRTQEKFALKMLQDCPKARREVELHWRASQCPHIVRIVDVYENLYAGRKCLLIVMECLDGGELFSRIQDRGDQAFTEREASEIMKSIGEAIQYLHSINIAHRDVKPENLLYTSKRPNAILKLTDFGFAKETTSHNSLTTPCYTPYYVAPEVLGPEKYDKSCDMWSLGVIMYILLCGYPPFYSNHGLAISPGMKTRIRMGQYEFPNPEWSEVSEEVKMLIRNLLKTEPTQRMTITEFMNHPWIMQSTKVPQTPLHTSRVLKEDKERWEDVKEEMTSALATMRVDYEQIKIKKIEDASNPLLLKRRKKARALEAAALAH
Sequence of ACK1 (Q07912 whole entry): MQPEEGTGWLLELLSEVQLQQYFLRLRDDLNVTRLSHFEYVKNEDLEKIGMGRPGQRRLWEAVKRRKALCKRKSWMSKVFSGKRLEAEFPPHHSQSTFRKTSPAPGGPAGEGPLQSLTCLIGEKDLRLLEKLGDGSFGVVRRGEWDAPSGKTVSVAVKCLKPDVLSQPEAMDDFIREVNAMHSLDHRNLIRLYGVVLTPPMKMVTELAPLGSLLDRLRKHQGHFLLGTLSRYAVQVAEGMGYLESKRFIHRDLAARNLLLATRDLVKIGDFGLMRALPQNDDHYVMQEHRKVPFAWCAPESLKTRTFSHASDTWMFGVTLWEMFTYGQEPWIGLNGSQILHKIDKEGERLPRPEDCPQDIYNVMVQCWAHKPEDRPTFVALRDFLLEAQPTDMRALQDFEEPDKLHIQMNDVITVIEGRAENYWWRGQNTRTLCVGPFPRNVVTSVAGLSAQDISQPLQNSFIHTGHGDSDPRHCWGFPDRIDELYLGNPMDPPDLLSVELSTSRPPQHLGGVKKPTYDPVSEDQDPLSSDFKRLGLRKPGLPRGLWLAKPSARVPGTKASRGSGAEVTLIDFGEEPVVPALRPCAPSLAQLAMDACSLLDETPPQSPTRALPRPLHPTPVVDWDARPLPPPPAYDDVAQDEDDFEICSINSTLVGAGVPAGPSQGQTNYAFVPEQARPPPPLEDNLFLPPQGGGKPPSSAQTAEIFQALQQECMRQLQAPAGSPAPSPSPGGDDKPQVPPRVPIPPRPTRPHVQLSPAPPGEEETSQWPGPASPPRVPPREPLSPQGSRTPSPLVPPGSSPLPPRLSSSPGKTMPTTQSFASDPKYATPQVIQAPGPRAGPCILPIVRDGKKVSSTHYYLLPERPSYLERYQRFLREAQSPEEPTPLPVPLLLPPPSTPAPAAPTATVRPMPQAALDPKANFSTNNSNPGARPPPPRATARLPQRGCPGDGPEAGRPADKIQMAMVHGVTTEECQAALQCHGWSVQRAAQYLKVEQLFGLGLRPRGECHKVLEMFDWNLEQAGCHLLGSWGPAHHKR
Sequence of STK17A (Q9UEE5 whole entry): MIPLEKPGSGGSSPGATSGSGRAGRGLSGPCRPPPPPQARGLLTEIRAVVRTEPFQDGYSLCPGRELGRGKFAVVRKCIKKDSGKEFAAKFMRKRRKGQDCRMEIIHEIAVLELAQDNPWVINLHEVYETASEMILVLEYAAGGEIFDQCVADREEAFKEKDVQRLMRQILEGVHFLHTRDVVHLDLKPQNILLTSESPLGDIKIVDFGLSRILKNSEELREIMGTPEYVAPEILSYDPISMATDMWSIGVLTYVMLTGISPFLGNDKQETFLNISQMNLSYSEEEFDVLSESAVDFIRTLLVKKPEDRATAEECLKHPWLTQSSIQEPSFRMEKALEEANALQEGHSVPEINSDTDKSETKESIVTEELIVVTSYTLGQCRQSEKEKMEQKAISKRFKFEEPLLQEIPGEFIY
Sequence of AKT2 (P31751 whole entry): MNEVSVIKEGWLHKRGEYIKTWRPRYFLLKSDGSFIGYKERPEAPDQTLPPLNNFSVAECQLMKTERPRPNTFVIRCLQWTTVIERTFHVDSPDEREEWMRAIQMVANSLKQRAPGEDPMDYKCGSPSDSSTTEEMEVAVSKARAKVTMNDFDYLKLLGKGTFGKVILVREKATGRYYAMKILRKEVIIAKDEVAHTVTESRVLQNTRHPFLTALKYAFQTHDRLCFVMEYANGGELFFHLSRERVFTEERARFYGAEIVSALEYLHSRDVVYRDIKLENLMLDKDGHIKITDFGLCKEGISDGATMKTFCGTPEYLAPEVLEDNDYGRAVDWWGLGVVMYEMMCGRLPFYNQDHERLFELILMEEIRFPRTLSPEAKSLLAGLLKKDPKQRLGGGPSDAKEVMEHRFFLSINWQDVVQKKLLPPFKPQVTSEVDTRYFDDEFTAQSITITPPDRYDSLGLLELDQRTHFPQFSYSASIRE
Sequence of CK1-gamma3 (Q9Y6M4 whole entry): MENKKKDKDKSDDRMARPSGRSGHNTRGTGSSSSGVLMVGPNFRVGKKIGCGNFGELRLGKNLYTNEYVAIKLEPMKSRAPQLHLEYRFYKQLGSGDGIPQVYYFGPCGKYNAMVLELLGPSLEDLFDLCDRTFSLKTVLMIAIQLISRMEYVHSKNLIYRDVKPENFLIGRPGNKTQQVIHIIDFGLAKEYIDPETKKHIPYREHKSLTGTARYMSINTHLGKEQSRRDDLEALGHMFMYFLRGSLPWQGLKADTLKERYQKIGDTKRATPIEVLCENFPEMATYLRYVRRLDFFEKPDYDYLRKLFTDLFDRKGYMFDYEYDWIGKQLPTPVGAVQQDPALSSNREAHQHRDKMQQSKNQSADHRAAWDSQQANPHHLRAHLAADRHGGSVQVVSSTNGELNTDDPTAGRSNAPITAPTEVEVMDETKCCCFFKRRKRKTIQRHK

Structure (SMILES): COc1ccc2c3ccnc(Cl)c3n(CC#N)c2c1 [AnnH75]
- residual activity at 1 µM, Mean (ACK1): 97 % of control
- residual activity at 1 µM, Mean (ACV-R1): 93 % of control
- residual activity at 1 µM, Mean (ACV-R2A): 97 % of control
- residual activity at 1 µM, Mean (ACV-RL1): 91 % of control
- residual activity at 1 µM, Mean (AKT2): 106 % of control
- residual activity at 1 µM, Mean (ARK5): 94 % of control
- residual activity at 1 µM, Mean (BLK): 100 % of control
- residual activity at 1 µM, Mean (B-RAF): 105 % of control
- residual activity at 1 µM, Mean (CDK4/CycD3): 89 % of control
- residual activity at 1 µM, Mean (CDK9/CycT1): 85 % of control
- residual activity at 1 µM, Mean (CK1-alpha1): 90 % of control
- residual activity at 1 µM, Mean (CK1-delta): 71 % of control
- residual activity at 1 µM, Mean (CK1-gamma3): 93 % of control
- residual activity at 1 µM, Mean (DMPK): 101 % of control
- residual activity at 1 µM, Mean (EIF2AK3): 99 % of control
- residual activity at 1 µM, Mean (EPHA3): 105 % of control
- residual activity at 1 µM, Mean (EPHA7): 107 % of control
- residual activity at 1 µM, Mean (FES): 93 % of control
- residual activity at 1 µM, Mean (JAK1): 93 % of control
- residual activity at 1 µM, Mean (LTK): 99 % of control
- residual activity at 1 µM, Mean (MAPKAPK2): 85 % of control
- residual activity at 1 µM, Mean (MEK2): 37 % of control
- residual activity at 1 µM, Mean (MKNK1): 103 % of control
- residual activity at 1 µM, Mean (MYLK2): 90 % of control
- residual activity at 1 µM, Mean (p38-beta): 105 % of control
- residual activity at 1 µM, Mean (PAK2): 105 % of control
- residual activity at 1 µM, Mean (PAK4): 94 % of control
- residual activity at 1 µM, Mean (CDK16/CycY): 90 % of control
- residual activity at 1 µM, Mean (PKC-epsilon): 39 % of control
- residual activity at 1 µM, Mean (PYK2): 110 % of control
- residual activity at 1 µM, Mean (RPS6KA3): 101 % of control
- residual activity at 1 µM, Mean (RPS6KA6): 98 % of control
- residual activity at 1 µM, Mean (SRC): 95 % of control
- residual activity at 1 µM, Mean (STK17A): 89 % of control
- residual activity at 1 µM, Mean (STK33): 87 % of control
- residual activity at 1 µM, Mean (TEC): 93 % of control
- residual activity at 1 µM, Mean (TRK-A): 84 % of control
- residual activity at 1 µM, Mean (WNK1): 98 % of control
- residual activity at 1 µM, Mean (ZAK): 94 % of control
